Columns and labels:
[1] = test system: primary human hepatocytes (PHH); assay: Western blot of γH2AX and p53 in primary human hepatocytes; details: 24 h; for γH2AX induction vs. control: selected concentrations
Method: (§1) Both cell lines were cultivated in DMEM high glucose without pyruvate (Gibco, Thermo Fisher Scientific, Waltham MA, USA) supplemented with 10% foetal calf serum (FCS, Pan-Biotech, Aidenbach, Germany) and 1% penicillin/streptomycin (Gibco, Thermo Fisher Scientific, Waltham MA, USA). […] Cryopreserved PHH (BioIVT, Brussels, Belgium) pooled from 10 donors (5 × females, 5 × males) were handled according to the protocol of the manufacturer. […] Cells were then diluted, plated for the respective assays in collagen-coated plates, and allowed to adhere for 3 h.
(§2) To this end, 5 × 10^5 cells were seeded in 3.5-cm dishes to adhere overnight. […] Proteins were separated by SDS-PAGE followed by the transfer onto a nitrocellulose membrane using the wet blot method. The successful transfer was confirmed by Ponceau S staining of the membrane before blocking with 5% non-fat dry milk in Tris-buffered saline with Tween-20 (MP-TBS-T). Subsequently, the membrane was incubated with the respective primary antibodies overnight at 4 °C. The membranes were washed three times for 5 min with TBS-T before incubating with the respective secondary antibody coupled with horseradish peroxidase. The detection was carried out using the Western Lightning Plus-ECL reagent (Perkin Elmer, Waltham MA, USA) with the c300 chemiluminescence imager (Azure Biosystems, Dublin CA, USA). The used primary and secondary antibodies are detailed in supplementary Table S3.

HepG2-CYP1A2 cells [2] = test system: HepG2-CYP1A2 cells
Method: (§3) The CBMN assay was performed according to the OECD test guideline #487. Therefore, 2 × 10^5 cells were seeded in 3.5 cm dishes and allowed to adhere for 24 h. […] After the 24 h treatment, the medium was discarded and the cells were incubated with fresh medium, containing 6 µg/mL cytochalasin B as cytokinesis inhibitor. The cells were then left to grow for 72 h, allowing for 1.5–2 × cell cycles. Subsequently, the cells were rinsed with PBS and fixed with ice-cold methanol for 10 min at –20 °C. Cells were washed and embedded with Vectashield® containing DAPI (Vector Labs, Burlingame, CA, USA). The samples were analysed with a Zeiss Axio Observer 7 microscope equipped with an Axiocam 305 mono and a 63 × oil immersion objective (plan-apochromat 63x/1.40 DIC M27) using ZEN Software 3.2. 500 binucleated cells per sample were analysed for micronuclei formation.
(§4) As benchmark response (BMR) for all concentration–response curves (adducts, micronuclei), a 2.0-fold increase vs. solvent control was used (BMC100, critical effect size = 1). The determined BMC100 and the corresponding upper and lower boundary (BMCU and BMCL, respectively) of the 90% confidence interval (CI) were used for potency comparison.

male F344 gpt delta rats = test system: male F344 gpt delta rats; parameters: method as in Suzuki et al. 2012a; details: top dose 200 mg ES/kg bw for 4 weeks; ref Suzuki et al. 2012a; cited from earlier work
parental HepG2 cells = test system: parental HepG2 cells; parameters: method as in Yang et al. 2020; details: ref Yang et al. 2020; cited from earlier work
mice = test system: mice; parameters: method as in Suzuki et al. 2012b; details: up to 300 mg/kg bw and day over 13 weeks; ref Suzuki et al. 2012b; cited from earlier work
HepaRG cells = test system: HepaRG cells; parameters: method as in Le Hegarat et al. 2014; details: ref Le Hegarat et al. 2014; cited from earlier work
HepG2-CYP1A2 cells [3] = assay: Western blot of γH2AX and p53 in HepG2-CYP1A2 cells; details: 24 h
Method: as §2, with “γH2AX and p53 levels were assessed by SDS-PAGE and western blotting as reported (Fahrer et al. [2013]). To” for “To”

[4] = test system: primary human hepatocytes (PHH); assay: Resazurin reduction assay (cytotoxicity) in PHH; details: 24 h
Method: as §1
PHH were seeded in 96-well plates precoated with collagen at a cell density of 7 × 10^4/well, left to adhere for 3 h, and treated as described above for 24 h. After treatment, medium was discarded and replaced by resazurin reaction solution containing 44 µM resazurin in NaCl/Pi buffer (1.1 mM KH2PO4, 154 mM NaCl, and 3.7 mM Na2HPO4∙H2O) diluted 1:10 in medium without FCS and P/S. The cells were then incubated for 1.5 h and fluorescence was measured using a Spark® microplate reader (Tecan, Männedorf, Switzerland) with an excitation at 544 nm and emission at 590 nm. The cell viability was calculated relative to the negative control (set to 100%).

HepaRG cells and PRH = test system: HepaRG cells and PRH; parameters: method as in Yang et al. 2020; details: 50 µM ES or 1′OH-ES; ref Yang et al. 2020; cited from earlier work
HepG2 cells = test system: HepG2 cells
Method: as §3, §4

[5] = test system: primary rat hepatocytes (PRH); details: read-out: EC50 (cell viability); 24 h
Method: The cell viability was calculated relative to the negative control (set to 100%).

[6] = endpoint MN (CBMN), BMR 2.0-fold increase
[7] = endpoint MN (CBMN), BMR 2.0-fold increase, 90% CI
[8] = range stated for both ES and 1′OH-ES

**Q.** Which “γH2AX induction vs. control” value [1] does the source give for `C=CCc1ccc(OC)cc1` [ES, estragole] here?
**A.** Its value is 1.4 fold.

**Q.** What about the “MN induction vs solvent control (CBMN)” value (HepG2-CYP1A2 cells [2]; 2000 µM ES (top concentration)) of the same compound?
**A.** The value was “roughly a twofold induction”.

**Q.** And the “concentration at which the increase in MN starts (CBMN)” value (HepG2-CYP1A2 cells [2]; 24 h + 72 h recovery)?
**A.** The value was 500 µM.

**Q.** And the “concentrations at which clastogenicity was observed” value (HepG2-CYP1A2 cells [2]; CBMN and MN flow assay)?
**A.** Its value is ≥ 1000 µM.

**Q.** What about the BMC100 (HepG2-CYP1A2 cells [2]; [6]) of the same compound?
**A.** The BMC100 was 1116 µM.

**Q.** And the BMCL (HepG2-CYP1A2 cells [2]; [7])?
**A.** Its BMCL is 555 µM.

**Q.** What about the BMCU (HepG2-CYP1A2 cells [2]; [7]) of the same compound?
**A.** The BMCU was 1755 µM.

**Q.** What about the “BMC for clastogenic response vs BMC for DNA adduct formation” value (HepG2-CYP1A2 cells [2]; [8]) of the same compound?
**A.** Its value is 12–17 fold.

**Q.** And the “mutagenicity, increase vs. control” value (male F344 gpt delta rats)?
**A.** The value was “twofold”.

**Q.** What about the DNA adducts (parental HepG2 cells) of the same compound?
**A.** The DNA adducts was “failed to cause DNA adducts”.

**Q.** What about the clastogenicity (mice) of the same compound?
**A.** Its clastogenicity is “clastogenicity was not detected”.

**Q.** What about the “lowest effect concentration for MN formation” value (HepaRG cells) of the same compound?
**A.** Its value is 1 mM.

**Q.** What about the “γH2AX induction vs. control” value (HepG2-CYP1A2 cells [3]; 250 µM ES) of the same compound?
**A.** Its value is “threefold”.

**Q.** What about the p53 accumulation (HepG2-CYP1A2 cells [3]) of the same compound?
**A.** The p53 accumulation was “No p53 accumulation”.

**Q.** And the viability ([4]; test concentrations up to 5 mM)?
**A.** Its viability is “did not affect viability”.

**Q.** With `C=CC(O)c1ccc(OC)cc1` (centres unmarked) [1′OH-ES, 1′-hydroxyestragole] as the compound, how does the p53 levels [1] read?
**A.** The p53 levels was “slightly declined”.

**Q.** What about the “γH2AX induction vs. control” value [1] of the same compound?
**A.** Its value is “threefold”.

**Q.** What about the “E3′-N^2-dG levels vs ES” value (HepaRG cells and PRH) of the same compound?
**A.** Its value is 33–40 fold.

**Q.** What about the “MN induction vs solvent control (CBMN)” value (HepG2 cells; 50 µM 1′OH-ES (top concentration)) of the same compound?
**A.** Its value is “roughly a twofold induction”.

**Q.** What about the “concentration at which the increase in MN starts (CBMN)” value (HepG2 cells; 24 h + 72 h recovery) of the same compound?
**A.** The value was 5 µM.

**Q.** And the BMC100 (HepG2 cells; [6])?
**A.** The BMC100 was 32.0 µM.

**Q.** What about the BMCL (HepG2 cells; [7]) of the same compound?
**A.** Its BMCL is 21.0 µM.

**Q.** What about the BMCU (HepG2 cells; [7]) of the same compound?
**A.** Its BMCU is 106 µM.

**Q.** And the “BMC for clastogenic response vs BMC for DNA adduct formation” value (HepG2 cells; [8])?
**A.** The value was 12–17 fold.

**Q.** What about the EC50 [5] of the same compound?
**A.** The EC50 was 23 µM.

**Q.** What about the EC50 ([4]; read-out: EC50 (cell viability)) of the same compound?
**A.** Its EC50 is 107 µM.
